Results from US5646156A, “Inhibition of eosinophil activation through A3 adenosine receptor antagonism” (Merck & Co., Inc., priority 1994, dated 1997).
pKd, pKi: −log10 of the molar value. Where “and” joins values, the source holds several entries; their conditions need not be identical. Equal values may be shown once. Entries after “also recorded” stand apart in the source; their conditions may differ. Read-outs that look alike come from different tables or passages of the source.

Key:
[1] = biological target: T1, human A3 adenosine receptor (Homo sapiens, UniProt P0DMS8); test: Competition binding vs 125I-ABA, membranes of CHO cells stably expressing HS-21a (human A3 adenosine receptor); settings: for pKi: competition with 125I-ABA, CHO membranes, human A3
T1 construct: clone HS-21a contained the complete open reading frame corresponding to the human homolog of the rat A3 adenosine receptor; expressed in transfected cells; host or cells: CHO cells, stably transfected (pCMV5-A3; pSVL and pREP vectors are also described)
T1 sequence (P0DMS8 1-318): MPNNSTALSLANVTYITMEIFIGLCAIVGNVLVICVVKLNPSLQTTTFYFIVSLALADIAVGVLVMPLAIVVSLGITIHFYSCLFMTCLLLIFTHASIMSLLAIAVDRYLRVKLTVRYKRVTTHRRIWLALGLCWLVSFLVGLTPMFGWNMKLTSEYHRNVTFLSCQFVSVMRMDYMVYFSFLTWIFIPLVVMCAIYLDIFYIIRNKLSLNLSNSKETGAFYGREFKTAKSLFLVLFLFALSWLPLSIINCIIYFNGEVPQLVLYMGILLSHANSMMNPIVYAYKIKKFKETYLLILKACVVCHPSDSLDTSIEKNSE
Method: Pellets were resuspended in 5 mM Hepes, pH 7.4/5 mM MgCl2 /0.1 mM benzamidine/0.1 mM PMSF at a protein concentration of 1-2 mg/mL and were incubated with adenosine deaminase (Boehringer Mannheim), 2 U/mL at 37° C. for 20 minutes. […] The assay was terminated by rapid filtration and three washes with ice-cold binding buffer on a Skatron harvester equipped with a receptor binding filtermat (Skatron Instruments, INC). […] Nonspecific binding was measured in the presence of 1 μM I-ABA. […] Binding data were analyzed and competition curves were constructed by use of the nonlinear regression curve fitting program Graph PAD InPlot, Version 3.0 (Graph Pad Software, San Diego).

[2] = system: cytokine activated eosinophils; test: Treatment of cytokine activated eosinophils (hypersensitivity to adenosine, degranulation, effector function); format: cell-based
[3] = biological target: T1, human A3 adenosine receptor; settings: antagonist potency in cAMP assay; disclosed by Salvatore et al.; cited from earlier work
[4] = biological target: sheep A3 adenosine receptor; settings: cited from earlier work
[5] = system: A3 adenosine receptor transcript, human eosinophils; test: A3 adenosine receptor transcript expression (RT-PCR) in GM-CSF stimulated eosinophils; format: cell-based; settings: GM-CSF (150 pM, 16 hours)
Method: (§1) Eosinophils and neutrophils (80-99% purity) were purified from human peripheral blood by an immunomagnetic procedure described by Hansel et al. (1991) J. Immunol. Methods 145: 105-110. Isolated cells (2-2.6×10^6 cells/mL) were cultured in the presence of 150 pM human recombinant granulocyte-macrophage colony stimulating factor, GM-CSF (Calbiochem, San Diego, Calif.) for 16 hours in RPMI with 10% fetal calf serum, at 37° C. in 5% CO2. Total RNA was extracted by the guanidinium isothiocyanate method (Chirgwin, J. M., et al, (1979) Biochemistry 18:5294-5299) from approximately 1.3×10^7 human eosinophils (+) or (-) GM-CSF stimulation. […]
(§2) Human adenosine receptor subtype transcript expression was determined using the polymerase chain reaction (PCR). […]
(§3) Ten μl of each PCR amplification reaction was elecrophoresed on a 1.4% agarose gel and alkaline blotted to Zeta-Probe GT membranes according to the manufacturer's protocol (BIO-RAD, Hercules, Calif.). […] The presence of A2a, A2b and A3 receptor PCR products were detected from normal and GM-CSF treated eosinophils.
(§4) PCR reaction products were quantitated using a Molecular Dynamics Phosphorimager and ImageQuant software. […] Quantitation of GAPDH was used to correct message level differences in the (+) or (-) GM-CSF stimulated human eosinophils. […]

[6] = system: A2b adenosine receptor transcript, human eosinophils; test: A2b adenosine receptor transcript expression (RT-PCR) in GM-CSF stimulated eosinophils; format: cell-based; settings: GM-CSF (150 pM, 16 hours)
Method: as §1, §2, §3, §4

[7] = system: A2a adenosine receptor transcript, human eosinophils; test: A2a adenosine receptor transcript expression (RT-PCR) in GM-CSF stimulated eosinophils; format: cell-based
Method: as §1, §2, §3, §4

[8] = system: A1 adenosine receptor transcript, human eosinophils; test: A1 adenosine receptor transcript expression (RT-PCR) in GM-CSF stimulated eosinophils; format: cell-based
Method: as §1, §2, §3, §4

[9] = biological target: T1, human A3 adenosine receptor; test: Inhibition of forskolin-stimulated cAMP accumulation, CHO cells stably expressing HS-21a (human A3 adenosine receptor); format: cell-based
Method: (§5) Determinations were made on stably transfected CHO cells in suspension as described (Linden et al., (1993) Mol. Pharm. 44:524-532). Supernatants (500 μL) were acetylated and acetylcyclic AMP was measured by automated radioimmunoassay (Hamilton, B. R. and Smith, D. O. (1991) J. Physiol. (Lond.) 432, 327-341). Antagonist dissociation constants were estimated from pA2 values as described by Schild (1957) Pharm. Rev. 9, 242-246).
(§6) The ability of the HS-21a receptor stably expressed in CHO cells to couple to the cAMP regulatory system was measured using adenosine as an agonist. […] In the absence of forskolin, adenosine had no effect on the cAMP levels. In non-transfected CHO cells, adenosine had no effect on cAMP levels when measured with or without forskolin treatment.

[10] = system: non-transfected CHO cells; test: cAMP levels in non-transfected CHO cells; format: cell-based; settings: with or without forskolin
Method: as §5, §6

[11] = system: eosinophils; test: Induction of eosinophil activation in animals; settings: in vivo
[12] = system: asthmatics; settings: cited from earlier work; for bronchoconstriction in asthmatics: not nonasthmatics
[13] = system: activated mast cells; settings: cited from earlier work
[14] = biological target: T1, human A3 adenosine receptor; test: Saturation binding of 125I-ABA to membranes of CHO cells stably expressing HS-21a (human A3 adenosine receptor); settings: for prevention of specific binding of 125I-ABA: 1 mM nonradioactive I-ABA (so in the source) or 400 μM NECA
[15] = system: sheep A3 adenosine receptor; settings: CHO cells; cited from earlier work
[16] = system: rat A3 adenosine receptor; settings: reported in literature; cited from earlier work
[17] = system: human adenosine receptors (all subtypes); settings: cited from earlier work
[18] = biological target: T1, human A3 adenosine receptor; settings: potencies disclosed by Salvatore et al.; cited from earlier work
[19] = Radioligand binding to membranes from CHO cells (non-transfected / non-specific)
[20] = 125I-ABA, HS-21a stable CHO cell membranes

CCCn1c(=O)c2[nH]c(-c3ccc(OCC(=O)O)cc3)nc2n(Cc2ccc(N)c(I)c2)c1=O [I-ABOPX, 3-(3-iodo-4-aminobenzyl)-8-(4-oxyacetate)phenyl-1-propylxanthine]
pKi [1]: 7.74 | affinity for human A3 receptor ([1]; in words): highest affinity antagonist yet reported for A3 adenosine receptors | hypersensitivity to adenosine, eosinophil degranulation and effector function [2]: blockade of this hypersensitivity and inhibition of eosinophil degranulation and effector function | cAMP pKi [3]: 8.13 | pKi [4]: 8.70

GM-CSF: human recombinant granulocyte-macrophage colony stimulating factor, GM-CSF (Calbiochem, San Diego, Calif.)
up-regulation of A3 transcripts [5]: ~10 fold | up-regulation of A2b transcripts [6]: ~3 fold and 3 to 4 fold | A2a transcript / message level change [7]: no change; also recorded: remained unchanged | A1 transcript expression [8]: no A1 products were observed; also recorded: remained unchanged

Nc1ncnc2c1ncn2[C@@H]1O[C@H](CO)[C@@H](O)[C@H]1O [adenosine]
inhibition at 10 µM ([9]; CHO, read-out: inhibition of forskolin-stimulated increase in cAMP): 30% | effect on cAMP levels in absence of forskolin ([9]; HS-21a CHO cells, no forskolin): no effect | effect on cAMP levels in non-transfected CHO cells [10]: no effect | eosinophil activation in animals [11]: induce eosinophil activation | bronchoconstriction in asthmatics ([12]; listed as Adenosine): induces bronchoconstriction in asthmatics but not in normal individuals; also recorded: produces bronchoconstriction in asthmatics but not in nonasthmatics | bronchoconstriction in asthmatics [12]: produces bronchoconstriction | release of histamine from activated mast cells [13]: potentiate

Nc1nc2c(ncn2[C@@H]2O[C@H](COP(=O)(O)OP(=O)(O)OP(O)(O)=S)[C@@H](O)[C@H]2O)c(=O)[nH]1 [GTPγS, guanosine 5'-O-3-thiotriphosphate]
inhibition at 10 µM ([14]; read-out: reduction of specific binding of 125I-ABA): 56%

CCNC(=O)[C@H]1O[C@@H](n2cnc3c(N)ncnc32)[C@H](O)[C@@H]1O [NECA, N-ethylcarboxamidoadenosine]
prevention of specific binding of 125I-ABA [14]: prevented

Nc1ccc(CNc2ncnc3c2ncn3[C@@H]2O[C@H](CO)[C@@H](O)[C@H]2O)cc1I [I-ABA]
prevention of specific binding of 125I-ABA [14]: prevented | inhibition of forskolin-stimulated cyclic AMP accumulation compared with NECA and other agonists (PIA and CPA) ([9]; CHO cells, human A3): only about half as much inhibition | agonist type for lowering cyclic AMP ([9]; CHO cells, human receptor): partial agonist | shift of NECA dose response curve to lower cyclic AMP ([9]; NECA in presence of I-ABA): fight-shifted | agonist type for lowering cyclic AMP [15]: full

Cn1c(=O)c2[nH]cnc2n(C)c1=O [theophylline]
antagonism of adenosine-induced bronchoconstriction [12]: antagonized

CCCn1c(=O)c2[nH]c(-c3ccc(OCC(=O)NCCN)cc3)nc2n(CCC)c1=O [XAC, xanthine amine cogener]
binding to rat A3 receptor [16]: not to bind | blockade of human adenosine receptor subtypes [17]: blocked

CCCn1c(=O)c2[nH]c(C3CCCC3)nc2n(CCC)c1=O [DPCPX, 1,3-dipropyl-8-cyclopentylxanthine]
binding to rat A3 receptor [16]: not to bind | blockade of human adenosine receptor subtypes [17]: blocked

CCCn1c(=O)c2[nH]c(-c3ccc(C=CC(=O)O)cc3)nc2n(CCC)c1=O [BW-A1433, 1,3-dipropyl-8-(4-acrylate)phenylxanthine]
pKi [1]: 7.26 | BINDING pKi [18]: 7.26 | cAMP pKi [3]: 7.0 | blockade of human adenosine receptor subtypes [17]: blocked

Nc1ccc(CCNc2ncnc3c2ncn3[C@@H]2O[C@H](CO)[C@@H](O)[C@H]2O)cc1[125I] [^125 I-APNEA, N^6-2-(4-amino-3-^125 iodophenyl)ethyladenosine]
non-specific binding to CHO cell membranes ([19]; 125I-APNEA, preliminary experiments): high non-specific

Nc1ccc(CNc2ncnc3c2ncn3[C@@H]2O[C@H](CO)[C@@H](O)[C@H]2O)cc1[125I] [^125 I-ABA, N^6-(4-amino-3-^125 iodobenzyl)adenosine]
Bmax [14, 20]: 258 fmol/mg protein | Hill coefficient [14, 20]: 0.99 | pKd ([14]; 125I-ABA, HS-21a stable CHO cell membranes, read-out: dissociation constant): 8.00 | specific binding to non-transfected CHO cell membranes ([19]; 125I-ABA): No specific binding
